pIC50: −log10 of the molar value.
Key:
MCF7 = assay: Cytotoxicity against human MCF7 cells […] by MTT reduction assay; type: functional, cell-based
HeLa = assay: cells; settings: Homo sapiens
Description: Cytotoxicity against human HeLa cells at 50 uM by MTT reduction assay

K562 = assay: cells; settings: Homo sapiens
Description: Cytotoxicity against human K562 cells at 50 uM by MTT reduction assay

LS180 = assay: cells; settings: Homo sapiens
Description: Cytotoxicity against human LS180 cells at 50 uM by MTT reduction assay

Staphylococcus aureus [1] = assay: Antibacterial activity against Staphylococcus aureus assessed as zone of inhibition at 100 ug/ml; type: functional; settings: read-out: IZ
Bacillus subtilis = assay: Antibacterial activity against Bacillus subtilis assessed as zone of inhibition at 100 ug/ml; type: functional; settings: read-out: IZ
Escherichia coli [2] = assay: Antibacterial activity against Escherichia coli assessed as zone of inhibition at 100 ug/ml; type: functional; settings: read-out: IZ
Salmonella typhimurium = assay: Antibacterial activity against Salmonella typhimurium DT104 assessed as zone of inhibition at 100 ug/ml; type: functional, Salmonella enterica subsp. enterica serovar Typhimurium; settings: Salmonella enterica, read-out: IZ
Staphylococcus aureus [3] = assay: Antibacterial activity against Staphylococcus aureus assessed as zone of inhibition at 20 mg/ml; type: functional; settings: read-out: IZ
Bacillus cereus = assay: Antibacterial activity against Bacillus cereus assessed as zone of inhibition at 20 mg/ml; type: functional; settings: read-out: IZ
Escherichia coli [4] = assay: Antibacterial activity against Escherichia coli assessed as zone of inhibition at 20 mg/ml; type: functional; settings: read-out: IZ
Pseudomonas aeruginosa = assay: Antibacterial activity against Pseudomonas aeruginosa assessed as zone of inhibition at 20 mg/ml; type: functional; settings: read-out: IZ
Serratia marcescens = assay: Antibacterial activity against Serratia marcescens assessed as zone of inhibition at 20 mg/ml; type: functional; settings: read-out: IZ
Micrococcus luteus = assay: Antibacterial activity against Micrococcus luteus assessed as zone of inhibition at 20 mg/ml; type: functional; settings: read-out: IZ
Candida albicans = assay: Antifungal activity against Candida albicans assessed as zone of inhibition at 20 mg/ml; type: functional; settings: read-out: IZ
Trichophyton rubrum = assay: Antifungal activity against Trichophyton rubrum assessed as zone of inhibition at 20 mg/ml; type: functional; settings: read-out: IZ
Aspergillus flavus = assay: Antifungal activity against Aspergillus flavus assessed as zone of inhibition at 20 mg/ml; type: functional; settings: read-out: IZ
Fusarium oxysporum = assay: Antifungal activity against Fusarium oxysporum assessed as zone of inhibition at 20 mg/ml; type: functional; settings: read-out: IZ
Scopulariopsis = assay: Antifungal activity against Scopulariopsis assessed as zone of inhibition at 20 mg/ml; type: functional; settings: read-out: IZ
Geotrichum candidum = assay: Antifungal activity against Geotrichum candidum assessed as zone of inhibition at 20 mg/ml; type: functional; settings: read-out: IZ

pIC50 (HeLa)	pIC50 (K562)	pIC50 (LS180)	SMILES	pIC50 (MCF7)	zone of inhibition at 100 µg/mL (Staphylococcus aureus [1]) [mm]	zone of inhibition at 100 µg/mL (Bacillus subtilis) [mm]	zone of inhibition at 100 µg/mL (Escherichia coli [2]) [mm]	zone of inhibition at 100 µg/mL (Salmonella typhimurium) [mm]	other results
4.01	< 4.00	< 4.00	COc1ccc(-c2c3c(nc4c2c(=O)oc2ccccc24)CCCC3=O)cc1	4.21					
			Cc1ccc2c(c1)oc(=O)c1c(-c3cn(-c4ccccc4)nc3-c3ccccc3)cc(-c3c(O)cc(O)cc3Cl)nc12		10	14	19	12	
4.05	4.36	< 4.00	O=C1CCCc2nc3c(c(-c4ccc([N+](=O)[O-])cc4)c21)c(=O)oc1ccccc13	< 4.00					
			O=C(N[C@H](CO)[C@H](O)c1ccc([N+](=O)[O-])cc1)C(Cl)Cl [CHLORAMPHENICOL]						zone of inhibition at 20000 µg/mL (Staphylococcus aureus [3]): 18 mm; zone of inhibition at 20000 µg/mL (Bacillus cereus): 22 mm; zone of inhibition at 20000 µg/mL (Escherichia coli [4]): 18 mm; zone of inhibition at 20000 µg/mL (Pseudomonas aeruginosa): 18 mm; zone of inhibition at 20000 µg/mL (Serratia marcescens): 20 mm; zone of inhibition at 20000 µg/mL (Micrococcus luteus): 20 mm; zone of inhibition at 20000 µg/mL (Candida albicans): 20 mm; zone of inhibition at 20000 µg/mL (Trichophyton rubrum): 36 mm; zone of inhibition at 20000 µg/mL (Aspergillus flavus): 44 mm; zone of inhibition at 20000 µg/mL (Fusarium oxysporum): 28 mm; zone of inhibition at 20000 µg/mL (Scopulariopsis): 20 mm; zone of inhibition at 20000 µg/mL (Geotrichum candidum): 24 mm
			Cc1ccc2c(c1)oc(=O)c1c(-c3cn(-c4ccccc4)nc3-c3ccccc3)cc(-c3c(O)c(Br)cc(Cl)c3Cl)nc12		21	20	19	22	
4.33	4.32	< 4.00	O=C1CCCc2nc3c(c(-c4ccc(Br)cc4)c21)c(=O)oc1ccccc13	4.34					
			CC1(C)S[C@@H]2[C@H](NC(=O)Cc3ccccc3)C(=O)N2[C@H]1C(=O)O [PENICILLIN G]		24	24	22	22	
			Cc1ccc2c(c1)oc(=O)c1c(-c3cn(-c4ccccc4)nc3-c3ccccc3)cc(-c3c(O)ccc(Cl)c3O)nc12		19	18	21	20	
			Cc1ccc2c(c1)oc(=O)c1c(-c3cn(-c4ccccc4)nc3-c3ccccc3)cc(-c3c(O)cc(C)c(Cl)c3Cl)nc12		7	14	8	10	
			NNC(=O)c1sc2c(c1N)c(=O)oc1ccccc12						zone of inhibition at 20000 µg/mL (Staphylococcus aureus [3]): 10 mm; zone of inhibition at 20000 µg/mL (Bacillus cereus): 0 mm; zone of inhibition at 20000 µg/mL (Escherichia coli [4]): 0 mm; zone of inhibition at 20000 µg/mL (Pseudomonas aeruginosa): 10 mm; zone of inhibition at 20000 µg/mL (Serratia marcescens): 11 mm; zone of inhibition at 20000 µg/mL (Micrococcus luteus): 0 mm; zone of inhibition at 20000 µg/mL (Candida albicans): 14 mm; zone of inhibition at 20000 µg/mL (Trichophyton rubrum): 0 mm; zone of inhibition at 20000 µg/mL (Aspergillus flavus): 10 mm; zone of inhibition at 20000 µg/mL (Fusarium oxysporum): 16 mm; zone of inhibition at 20000 µg/mL (Scopulariopsis): 13 mm; zone of inhibition at 20000 µg/mL (Geotrichum candidum): 13 mm
			Cc1ccc2c(c1)oc(=O)c1c(-c3cn(-c4ccccc4)nc3-c3ccccc3)cc(-c3c(O)c(Cl)c(O)c(Cl)c3Cl)nc12		18	22	22	20	zone of inhibition at 20000 µg/mL (Staphylococcus aureus [3]): 22 mm; zone of inhibition at 20000 µg/mL (Escherichia coli [4]): 22 mm
			Cc1ccc2c(c1)oc(=O)c1c(-c3cn(-c4ccccc4)nc3-c3ccccc3)cc(-c3c(O)c(C)cc(I)c3O)nc12		15	18	18	12	
4.08	4.41	< 4.00	O=C1CCCc2nc3c(c(-c4cccc(Br)c4)c21)c(=O)oc1ccccc13	4.50					
< 4.00	< 4.00	< 4.00	O=C1CCCc2nc3c(c(-c4ccccc4Cl)c21)c(=O)oc1ccccc13	< 4.00					
			Cc1ccc2c(c1)oc(=O)c1c(-c3cn(-c4ccccc4)nc3-c3ccccc3)cc(-c3c(O)c(Cl)cc(I)c3O)nc12		19	22	20	16	
4.36	4.25	< 4.00	Cc1ccc(-c2c3c(nc4c2c(=O)oc2ccccc24)CCCC3=O)cc1	4.18					
